Source: patent US10428104B2, “Substituted nucleoside derivatives useful as anticancer agents” (Pfizer Inc., priority 2015, dated 2019)

Key:
[1] = test system: A549 lung adenocarcinoma cells; assay: A549 proliferation assay (Cell Titer Glo, 7 days); type: cell-based; conditions: Homo sapiens, 168 h, 7 days with compound, cell viability by Cell Titer Glo (ATP)
Method: A549 lung adenocarcinoma cells (American Type CuIture Collection) were maintained in DMEM growth media (Life Technologies) supplemented with 10% v/v heat inactivated fetal bovine serum (Sigma) and cultured at 37° C., 5% CO2. Exponentially growing A549 cells were plated in 96-well black tissue culture treated plates (Corning) at a density of 2500 cells/ml in a volume of 100 μl culture media and allowed to adhere overnight at 37° C., 5% CO2. The following day, compound plates were prepared by making nine-point 3.3-fold dilutions in DMSO with a top concentration of 10 mM. Compounds were further diluted in culture media and 11 μl was added to the cells (final top assay concentration was 10 μM and DMSO was […]). Cells were incubated with compound at 37° C., 5% CO2 for 7 days with media and compound replacement on day 4. Cell viability was assayed on Day 7 by adding 100 μl Cell Titer Glo (Promega) reagent to the plate to measure the amount of ATP present in the cells. Luminescence was read using the Envision 2104 Multilabel Reader (Perkin Elmer).
Results for the A549 proliferation assay of examples are summarized in Table 2, shown as IC50 values in μM.

[2] = target: PRMT5/MEP50 protein complex (Homo sapiens (Human), UniProt O14744); assay: PRMT5 biochemical assay (3H-SAM methylation of H4(1-21) peptide, filter plate scintillation counting); conditions: PRMT5 enzyme inhibition; 10 nM PRMT5/MEP50 complex, 200 nM H4(1-21) peptide, 1 uM SAM, 25 minute incubation at room temperature
Method in brief: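 Flag-PRMT5/MEP50 was co-expressed in Sf21 cells and Flag-affinity purified. Reactions used 10 nM complex, 200 nM H4(1-21) peptide and 1 uM 3H-SAM (final) in 50 mM Tris pH 8.5, 50 mM NaCl, 5 mM MgCl2, 1 mM EDTA and 1 mM TCEP, run 25 min at room temperature. Reactions were TCA-stopped, filter-captured and scintillation-counted; IC50 came from a 4-parameter fit.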

PRMT5/MEP50 protein complex, sequence (O14744 other isoform, or with tags, fused parts or gaps): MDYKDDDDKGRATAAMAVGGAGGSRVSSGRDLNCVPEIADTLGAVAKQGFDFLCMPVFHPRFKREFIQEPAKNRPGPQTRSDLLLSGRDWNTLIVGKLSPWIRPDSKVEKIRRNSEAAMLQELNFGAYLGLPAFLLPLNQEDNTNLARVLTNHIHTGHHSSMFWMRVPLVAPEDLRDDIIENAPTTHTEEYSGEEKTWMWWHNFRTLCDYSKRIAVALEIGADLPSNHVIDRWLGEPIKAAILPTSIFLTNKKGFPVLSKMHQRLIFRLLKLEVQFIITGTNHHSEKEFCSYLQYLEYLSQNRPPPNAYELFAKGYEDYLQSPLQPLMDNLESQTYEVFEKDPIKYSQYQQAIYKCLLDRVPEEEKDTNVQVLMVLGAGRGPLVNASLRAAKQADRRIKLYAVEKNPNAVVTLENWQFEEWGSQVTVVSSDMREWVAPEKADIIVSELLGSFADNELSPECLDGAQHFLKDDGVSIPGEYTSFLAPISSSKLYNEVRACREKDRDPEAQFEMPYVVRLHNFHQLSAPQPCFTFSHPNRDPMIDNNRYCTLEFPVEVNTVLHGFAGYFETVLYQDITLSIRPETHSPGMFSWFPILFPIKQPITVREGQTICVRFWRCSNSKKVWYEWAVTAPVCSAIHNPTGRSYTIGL
PRMT5/MEP50 protein complex, sequence (Q9BQA1 whole entry partner): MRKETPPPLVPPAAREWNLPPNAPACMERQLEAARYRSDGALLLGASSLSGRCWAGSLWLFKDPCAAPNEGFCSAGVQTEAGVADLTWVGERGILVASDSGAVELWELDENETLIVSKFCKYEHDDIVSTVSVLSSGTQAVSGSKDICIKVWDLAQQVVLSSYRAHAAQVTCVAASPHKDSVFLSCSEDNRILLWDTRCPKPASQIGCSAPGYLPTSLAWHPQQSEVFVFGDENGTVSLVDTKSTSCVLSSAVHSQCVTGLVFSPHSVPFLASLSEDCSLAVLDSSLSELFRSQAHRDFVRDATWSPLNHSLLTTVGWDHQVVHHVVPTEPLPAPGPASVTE

Compound	IC50 [1] [nM]	IC50 [2] [nM]
CC[C@@H](O)[C@H]1O[C@@H](n2ccc3c(C)nc(N)nc32)[C@H](O)[C@@H]1O [Example 62, (2R,3R,4S,5R)-2-(2-amino-4-methyl-7H-pyrrolo[2,3-d]pyrimidin-7-yl)-5-((R)-1-hydroxypropyl)tetrahydrofuran-3,4-diol]	2300	52
Cc1ccc(C(O)[C@H]2O[C@@H](n3ccc4c(C)ncnc43)[C@H](O)[C@@H]2O)cn1 (stereo in doubt) [Example 110, (2R,3S,4R,5R)-2-((R)-hydroxy(6-methylpyridin-3-yl)methyl)-5-(4-methyl-7H-pyrrolo[2,3-d]pyrimidin-7-yl)tetrahydrofuran-3,4-diol]	1730	24
Cc1ncnc2c1ccn2[C@@H]1O[C@H]([C@@H](O)c2cc(F)cc(F)c2)[C@@H](O)[C@H]1O [Example 37, (2R,3S,4R,5R)-2-((S)-(3,5-difluorophenyl)(hydroxy)methyl)-5-(4-methyl-7H-pyrrolo[2,3-d]pyrimidin-7-yl)tetrahydrofuran-3,4-diol]	3000	2640
Cc1cc(C(O)[C@H]2O[C@@H](n3ccc4c(C)ncnc43)[C@H](O)[C@@H]2O)ccn1 (stereo in doubt) [Example 111, (2R,3S,4R,5R)-2-((R)-hydroxy(2-methylpyridin-4-yl)methyl)-5-(4-methyl-7H-pyrrolo[2,3-d]pyrimidin-7-yl)tetrahydrofuran-3,4-diol]	148	12
Cc1ncnc2c1ccn2[C@@H]1O[C@H]([C@@H](O)c2ccc(F)cc2)[C@@H](O)[C@H]1O [Example 39, (2R,3S,4R,5R)-2-((S)-(4-fluorophenyl)(hydroxy)methyl)-5-(4-methyl-7H-pyrrolo[2,3-d]pyrimidin-7-yl)tetrahydrofuran-3,4-diol]	10500	1550
Nc1ncnc2c1c(I)cn2[C@@H]1O[C@H]([C@H](O)c2ccc(F)c(F)c2)[C@@H](O)[C@H]1O [Example 119, (2R,3R,4S,5R)-2-(4-amino-5-iodo-7H-pyrrolo[2,3-d]pyrimidin-7-yl)-5-((R)-(3,4-difluorophenyl)(hydroxy)methyl)tetrahydrofuran-3,4-diol]	322	7
Cc1ncnc2c1c(F)cn2[C@@H]1O[C@H]([C@H](O)c2ccc(F)cc2)[C@@H](O)[C@H]1O [Example 98, (2R,3R,4S,5R)-2-(5-fluoro-4-methyl-7H-pyrrolo[2,3-d]pyrimidin-7-yl)-5-((R)-(4-fluorophenyl)(hydroxy)methyl)tetrahydrofuran-3,4-diol]	250	18
Cc1ncnc2c1ccn2[C@@H]1O[C@H]([C@H](O)c2cnn(C)c2)[C@@H](O)[C@H]1O [Example 50, (2R,3S,4R,5R)-2-((R)-hydroxy(1-methyl-1H-pyrazol-4-yl)methyl)-5-(4-methyl-7H-pyrrolo[2,3-d]pyrimidin-7-yl)tetrahydrofuran-3,4-diol]	3200	
Cc1ncnc2c1ccn2[C@@H]1O[C@H]([C@H](O)c2cccc3c2CNCC3)[C@@H](O)[C@H]1O [Example 112, (2R,3S,4R,5R)-2-((R)-hydroxy(1,2,3,4-tetrahydroisoquinolin-8-yl)methyl)-5-(4-methyl-7H-pyrrolo[2,3-d]pyrimidin-7-yl)tetrahydrofuran-3,4-diol]	350	1
Cc1ncnc2c1ccn2[C@@H]1O[C@H]([C@@H](O)c2ccccc2)[C@@H](O)[C@H]1O [Example 27, (2R,3S,4R,5R)-2-((S)-hydroxy(phenyl)methyl)-5-(4-methyl-7H-pyrrolo[2,3-d]pyrimidin-7-yl)tetrahydrofuran-3,4-diol]	8700	5170
N[C@H](c1ccc(Cl)c(F)c1)[C@H]1O[C@@H](n2ccc3cncnc32)[C@H](O)[C@@H]1O [Example 116, (2R,3S,4R,5R)-2-((R)-amino(4-chloro-3-fluorophenyl)methyl)-5-(7H-pyrrolo[2,3-d]pyrimidin-7-yl)tetrahydrofuran-3,4-diol]	1640	5
Cc1ncnc2c1ccn2[C@@H]1O[C@H]([C@H](N)c2ccc(F)c(F)c2)[C@@H](O)[C@H]1O [Example 94, (2R,3S,4R,5R)-2-((R)-amino(3,4-difluorophenyl)methyl)-5-(4-methyl-7H-pyrrolo[2,3-d]pyrimidin-7-yl)tetrahydrofuran-3,4-diol]	1780	
Cc1ncnc2c1ccn2[C@@H]1O[C@H](Cn2cccn2)[C@@H](O)[C@H]1O [Example 58, (2R,3S,4R,5R)-2-((1H-pyrazol-1-yl)methyl)-5-(4-methyl-7H-pyrrolo[2,3-d]pyrimidin-7-yl)tetrahydrofuran-3,4-diol]		1980

More lines, now with the values ahead:

IC50 [1] [nM]	IC50 [2] [nM]	Compound
43	7	Cc1cc([C@@H](O)[C@H]2O[C@@H](n3ccc4c(C)ncnc43)[C@H](O)[C@@H]2O)ccc1F [Example 10, (2R,3S,4R,5R)-2-((R)-(4-fluoro-3-methylphenyl)(hydroxy)methyl)-5-(4-methyl-7H-pyrrolo[2,3-d]pyrimidin-7-yl)tetrahydrofuran-3,4-diol]
6	1	Nc1ncnc2c1ccn2[C@@H]1O[C@H]([C@H](O)c2ccc(F)c(F)c2)[C@@H](O)[C@H]1O [Example 85, (2R,3R,4S,5R)-2-(4-amino-7H-pyrrolo[2,3-d]pyrimidin-7-yl)-5-((R)-(3,4-difluorophenyl)(hydroxy)methyl)tetrahydrofuran-3,4-diol]
14	3	Nc1ncnc2c1c(F)cn2[C@@H]1O[C@H]([C@H](O)c2ccc(F)cc2)[C@@H](O)[C@H]1O [Example 61, (2R,3R,4S,5R)-2-(4-amino-5-fluoro-7H-pyrrolo[2,3-d]pyrimidin-7-yl)-5-((R)-(4-fluorophenyl)(hydroxy)methyl)tetrahydrofuran-3,4-diol]
26	6	Cc1ncnc2c1ccn2[C@@H]1O[C@H]([C@H](O)c2cccc(F)c2)[C@@H](O)[C@H]1O [Example 34, (2R,3S,4R,5R)-2-((R)-(3-fluorophenyl)(hydroxy)methyl)-5-(4-methyl-7H-pyrrolo[2,3-d]pyrimidin-7-yl)tetrahydrofuran-3,4-diol]
3	1	Nc1ncnc2c1ccn2[C@@H]1O[C@H]([C@H](O)c2ccc(Cl)c(F)c2)[C@@H](O)[C@H]1O [Example 88, (2R,3R,4S,5R)-2-(4-amino-7H-pyrrolo[2,3-d]pyrimidin-7-yl)-5-((R)-(4-chloro-3-fluorophenyl)(hydroxy)methyl)tetrahydrofuran-3,4-diol]
48		Nc1ncnc2c1ncn2[C@@H]1O[C@H]([C@H](O)c2ccc(F)c(F)c2)[C@@H](O)[C@H]1O [Example 84, (2R,3R,4S,5R)-2-(6-amino-9H-purin-9-yl)-5-((R)-(3,4-difluorophenyl)(hydroxy)methyl)tetrahydrofuran-3,4-diol]
10	2	Nc1ncnc2c1c(F)cn2[C@@H]1O[C@H]([C@H](O)c2ccc(F)c(F)c2)[C@@H](O)[C@H]1O [Example 60, (2R,3R,4S,5R)-2-(4-amino-5-fluoro-7H-pyrrolo[2,3-d]pyrimidin-7-yl)-5-((R)-(3,4-difluorophenyl)(hydroxy)methyl)tetrahydrofuran-3,4-diol]
46	2	O[C@@H]1[C@H](O)[C@@H]([C@H](O)c2ccc(Cl)c(F)c2)O[C@H]1n1ccc2cncnc21 [Example 115, (2R,3S,4R,5R)-2-((R)-(4-chloro-3-fluorophenyl)(hydroxy)methyl)-5-(7H-pyrrolo[2,3-d]pyrimidin-7-yl)tetrahydrofuran-3,4-diol]
42	5	Cc1ncnc2c1ccn2[C@@H]1O[C@H]([C@H](O)c2ccc(F)cc2)[C@@H](O)[C@H]1O [Example 38, (2R,3S,4R,5R)-2-((R)-(4-fluorophenyl)(hydroxy)methyl)-5-(4-methyl-7H-pyrrolo[2,3-d]pyrimidin-7-yl)tetrahydrofuran-3,4-diol]
112	4	Cc1ncnc2c1ccn2[C@@H]1O[C@H]([C@H](O)c2ccc(F)c(C#N)c2)[C@@H](O)[C@H]1O [Example 13]
100	12	COc1cc([C@@H](O)[C@H]2O[C@@H](n3ccc4c(C)ncnc43)[C@H](O)[C@@H]2O)ccc1F [Example 12, (2R,3S,4R,5R)-2-((R)-(4-fluoro-3-methoxyphenyl)(hydroxy)methyl)-5-(4-methyl-7H-pyrrolo[2,3-d]pyrimidin-7-yl)tetrahydrofuran-3,4-diol]
16		Cc1ncnc2c1ccn2[C@@H]1O[C@H]([C@H](O)c2ccc(F)c(F)c2)[C@@H](O)[C@H]1O [Example 9, (2R,3S,4R,5R)-2-((R)-(3,4-difluorophenyl)(hydroxy)methyl)-5-(4-methyl-7H-pyrrolo[2,3-d]pyrimidin-7-yl)tetrahydrofuran-3,4-diol]
